From PMC6591397, “Functional Roles of Metabolic Intermediates in Regulating the Human Mitochondrial NAD(P)^+-Dependent Malic Enzyme” (Scientific Reports, 2019)
Where “and” joins values, the source holds several entries; their conditions need not be identical. Identical values can stand only once. Counter-ions that a name gives are not always drawn.

Columns and labels:
human m-NAD(P)-ME WT = biological target: T1, human m-NAD(P)-ME WT (Homo sapiens, UniProt P23368); experiment: ATP/ADP inhibition of enzyme activity; assay type: biochemical
T1 construct: made in house; host or cells: E. coli BL21 (pRH281 vector, trp promoter)
T1 sequence (P23368 19-584): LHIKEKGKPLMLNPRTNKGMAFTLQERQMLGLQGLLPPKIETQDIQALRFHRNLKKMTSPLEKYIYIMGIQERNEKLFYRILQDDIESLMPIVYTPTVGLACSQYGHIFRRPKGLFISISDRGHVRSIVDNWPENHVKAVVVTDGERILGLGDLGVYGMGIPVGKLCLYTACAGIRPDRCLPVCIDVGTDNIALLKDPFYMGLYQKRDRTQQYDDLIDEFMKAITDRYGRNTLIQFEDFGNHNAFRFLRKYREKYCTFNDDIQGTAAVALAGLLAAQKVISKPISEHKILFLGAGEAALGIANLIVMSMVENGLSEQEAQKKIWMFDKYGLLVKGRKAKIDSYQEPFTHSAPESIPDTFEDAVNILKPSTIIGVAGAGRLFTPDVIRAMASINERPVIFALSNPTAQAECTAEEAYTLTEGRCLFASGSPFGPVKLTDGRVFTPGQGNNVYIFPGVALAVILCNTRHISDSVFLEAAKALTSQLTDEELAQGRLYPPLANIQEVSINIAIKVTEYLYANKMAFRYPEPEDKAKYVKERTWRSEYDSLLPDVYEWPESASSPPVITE
Experimental: (§1) The ME reaction was measured with the production rate of NADH or NADPH via the absorbance at 340 nm. The reaction mixture in a saturated condition included 1 mM NAD(P)^+, 40 mM malate, and 10 mM MgCl2 in 50 mM Tris-HCl (pH 7.4). To determine the Km and kcat values, the concentration of one substrate was varied around its Km values while the concentrations of the other components were fixed at saturated concentrations.
C is the slope of the curve at its midpoint. […] All of the calculations were performed using the Sigma Plot 10.0 software program (Jandel Scientific, San Rafael, CA, USA).

m-NAD(P)-ME = biological target: T2, m-NAD(P)-ME (Homo sapiens, UniProt P23368); experiment: Fumarate titration, activation of enzyme activity; assay type: biochemical; conditions: WT; 15 mM L-malate, 10 mM MgCl2, 1 mM NAD+, pH 7.4; fumarate 0 to 6 mM
T2 construct: made in house; host or cells: E. coli BL21 (pRH281 vector, trp promoter)
T2 sequence (P23368 19-584): as above
Experimental: as §1
Figure S2. Fumarate activating effect on human m-NAD(P)-ME WT and the exosite mutants.

IC50 (human m-NAD(P)-ME WT) | maximal activation of the enzyme by fumarate (m-NAD(P)-ME) | SMILES
3.74 mM and 3.7 mM |  | Nc1ncnc2c1ncn2[C@@H]1O[C@H](COP(=O)(O)OP(=O)(O)O)[C@@H](O)[C@H]1O [ADP]
 | approximately 2 fold | O=C(O)/C=C/C(=O)O [FUM, fumarate]
